# PMC11167047 (Cell Death Discovery, 2024)
# Columns and labels:
# Assay in all cases: kinome screen (33PanQinase)
# Type in all cases: biochemical
# BRK = molecular target: T1, BRK (Homo sapiens, UniProt Q13882)
# T1 construct: purchased Reaction Biology Europe GmbH (formerly ProQinase)
# Protocol: (§1) The Kinome Screening was performed by Reaction Biology Europe GmbH (http://reactionbiology.com; Freiburg i. Br., Germany).
# CHK1 = molecular target: T2, CHK1 (Homo sapiens, UniProt O14757)
# T2 construct: purchased Reaction Biology Europe GmbH (formerly ProQinase)
# T2 sequence (O14757 1-476): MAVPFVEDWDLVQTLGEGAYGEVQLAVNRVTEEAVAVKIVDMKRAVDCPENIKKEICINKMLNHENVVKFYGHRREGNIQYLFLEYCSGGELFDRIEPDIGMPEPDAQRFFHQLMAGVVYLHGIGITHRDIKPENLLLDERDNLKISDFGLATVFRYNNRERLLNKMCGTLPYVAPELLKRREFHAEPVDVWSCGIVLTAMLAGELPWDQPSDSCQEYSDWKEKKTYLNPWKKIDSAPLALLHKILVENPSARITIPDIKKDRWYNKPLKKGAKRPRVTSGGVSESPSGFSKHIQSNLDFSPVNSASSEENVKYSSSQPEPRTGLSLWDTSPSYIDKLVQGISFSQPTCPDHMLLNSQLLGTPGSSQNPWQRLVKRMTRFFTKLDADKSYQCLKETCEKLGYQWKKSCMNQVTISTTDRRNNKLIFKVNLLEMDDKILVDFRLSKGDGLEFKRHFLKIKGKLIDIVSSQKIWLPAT
# Protocol: as §1
# DYRK2 = molecular target: T3, DYRK2 (Homo sapiens, UniProt Q92630)
# T3 construct: purchased Reaction Biology Europe GmbH (formerly ProQinase)
# T3 sequence (Q92630 1-601): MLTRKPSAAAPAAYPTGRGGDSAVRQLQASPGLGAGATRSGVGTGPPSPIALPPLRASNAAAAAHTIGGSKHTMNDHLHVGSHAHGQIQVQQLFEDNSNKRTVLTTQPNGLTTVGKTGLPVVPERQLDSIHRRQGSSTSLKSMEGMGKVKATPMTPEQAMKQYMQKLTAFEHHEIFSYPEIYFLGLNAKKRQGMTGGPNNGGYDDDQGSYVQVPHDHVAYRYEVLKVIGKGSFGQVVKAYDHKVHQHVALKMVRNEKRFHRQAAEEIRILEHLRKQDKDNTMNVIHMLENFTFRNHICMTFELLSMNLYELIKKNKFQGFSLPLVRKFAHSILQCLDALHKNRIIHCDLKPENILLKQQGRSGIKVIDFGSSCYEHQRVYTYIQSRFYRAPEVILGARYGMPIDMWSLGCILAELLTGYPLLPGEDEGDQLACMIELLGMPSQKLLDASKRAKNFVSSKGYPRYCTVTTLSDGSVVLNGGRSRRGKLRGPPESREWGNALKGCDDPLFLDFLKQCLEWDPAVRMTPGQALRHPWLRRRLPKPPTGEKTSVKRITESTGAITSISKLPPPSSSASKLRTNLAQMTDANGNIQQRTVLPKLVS
# Protocol: as §1
# GRK7 = molecular target: T4, GRK7 (Homo sapiens, UniProt Q8WTQ7)
# T4 construct: purchased Reaction Biology Europe GmbH (formerly ProQinase)
# T4 sequence (Q8WTQ7 1-553): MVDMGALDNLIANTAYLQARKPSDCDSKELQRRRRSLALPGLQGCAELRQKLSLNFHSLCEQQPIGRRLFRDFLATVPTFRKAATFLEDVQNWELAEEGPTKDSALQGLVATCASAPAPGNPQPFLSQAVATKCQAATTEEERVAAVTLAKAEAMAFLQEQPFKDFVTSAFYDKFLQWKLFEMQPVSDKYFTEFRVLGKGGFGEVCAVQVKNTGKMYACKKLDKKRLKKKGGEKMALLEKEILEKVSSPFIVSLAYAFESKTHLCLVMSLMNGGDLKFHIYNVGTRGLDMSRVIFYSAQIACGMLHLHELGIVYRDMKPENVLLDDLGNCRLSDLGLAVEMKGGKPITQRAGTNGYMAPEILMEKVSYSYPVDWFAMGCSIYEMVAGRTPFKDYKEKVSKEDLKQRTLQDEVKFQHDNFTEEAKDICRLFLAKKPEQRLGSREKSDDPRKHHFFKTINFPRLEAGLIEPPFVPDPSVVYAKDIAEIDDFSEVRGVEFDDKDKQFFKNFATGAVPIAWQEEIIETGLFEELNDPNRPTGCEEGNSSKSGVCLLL
# Protocol: as §1
# ROCK1 = molecular target: T5, ROCK1 (Homo sapiens, UniProt Q13464)
# T5 construct: purchased Reaction Biology Europe GmbH (formerly ProQinase)
# Protocol: as §1
# SIK1 = molecular target: T6, SIK1 (Homo sapiens, UniProt P57059)
# T6 construct: purchased Reaction Biology Europe GmbH (formerly ProQinase)
# Protocol: as §1
# SIK2 = molecular target: T7, SIK2 (Homo sapiens, UniProt Q9H0K1)
# T7 construct: purchased Reaction Biology Europe GmbH (formerly ProQinase)
# Protocol: as §1
# TLK2 = molecular target: T8, TLK2 (Homo sapiens, UniProt Q86UE8)
# T8 construct: purchased Reaction Biology Europe GmbH (formerly ProQinase)
# Protocol: as §1
# T5 sequence (Q13464 whole entry): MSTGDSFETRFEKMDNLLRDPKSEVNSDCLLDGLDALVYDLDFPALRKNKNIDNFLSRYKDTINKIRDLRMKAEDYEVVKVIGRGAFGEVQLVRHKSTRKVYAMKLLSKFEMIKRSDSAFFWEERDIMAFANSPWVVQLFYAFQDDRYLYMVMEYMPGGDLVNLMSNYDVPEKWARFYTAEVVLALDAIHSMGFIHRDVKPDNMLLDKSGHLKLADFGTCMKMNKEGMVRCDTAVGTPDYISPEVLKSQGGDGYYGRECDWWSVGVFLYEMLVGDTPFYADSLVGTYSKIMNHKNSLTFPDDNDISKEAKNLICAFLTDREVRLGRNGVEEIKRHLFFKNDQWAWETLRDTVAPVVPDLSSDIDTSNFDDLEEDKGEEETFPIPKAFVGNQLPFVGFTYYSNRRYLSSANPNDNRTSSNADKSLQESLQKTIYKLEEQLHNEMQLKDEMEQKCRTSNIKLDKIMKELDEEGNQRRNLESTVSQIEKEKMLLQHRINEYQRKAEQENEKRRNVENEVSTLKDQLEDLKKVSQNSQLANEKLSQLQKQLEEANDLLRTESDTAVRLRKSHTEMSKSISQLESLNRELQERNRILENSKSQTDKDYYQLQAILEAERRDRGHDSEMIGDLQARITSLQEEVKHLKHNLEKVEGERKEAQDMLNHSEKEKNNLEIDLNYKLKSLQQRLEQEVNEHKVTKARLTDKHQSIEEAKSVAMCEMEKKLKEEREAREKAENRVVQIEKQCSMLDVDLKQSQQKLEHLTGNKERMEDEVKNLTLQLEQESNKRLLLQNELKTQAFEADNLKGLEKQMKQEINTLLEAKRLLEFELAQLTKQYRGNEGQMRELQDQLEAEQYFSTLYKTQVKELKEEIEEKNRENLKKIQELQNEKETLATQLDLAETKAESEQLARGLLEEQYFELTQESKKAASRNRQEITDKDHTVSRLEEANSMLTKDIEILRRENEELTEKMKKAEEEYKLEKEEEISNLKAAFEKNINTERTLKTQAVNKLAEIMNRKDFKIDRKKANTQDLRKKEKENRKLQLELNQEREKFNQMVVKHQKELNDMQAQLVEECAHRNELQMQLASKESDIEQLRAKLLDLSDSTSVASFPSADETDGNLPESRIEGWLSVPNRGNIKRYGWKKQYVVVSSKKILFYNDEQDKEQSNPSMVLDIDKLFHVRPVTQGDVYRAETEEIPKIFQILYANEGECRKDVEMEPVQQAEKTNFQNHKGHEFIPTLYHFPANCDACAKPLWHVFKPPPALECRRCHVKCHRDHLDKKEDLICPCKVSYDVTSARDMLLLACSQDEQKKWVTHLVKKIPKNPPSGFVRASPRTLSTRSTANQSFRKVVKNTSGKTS
# T6 sequence (P57059 whole entry): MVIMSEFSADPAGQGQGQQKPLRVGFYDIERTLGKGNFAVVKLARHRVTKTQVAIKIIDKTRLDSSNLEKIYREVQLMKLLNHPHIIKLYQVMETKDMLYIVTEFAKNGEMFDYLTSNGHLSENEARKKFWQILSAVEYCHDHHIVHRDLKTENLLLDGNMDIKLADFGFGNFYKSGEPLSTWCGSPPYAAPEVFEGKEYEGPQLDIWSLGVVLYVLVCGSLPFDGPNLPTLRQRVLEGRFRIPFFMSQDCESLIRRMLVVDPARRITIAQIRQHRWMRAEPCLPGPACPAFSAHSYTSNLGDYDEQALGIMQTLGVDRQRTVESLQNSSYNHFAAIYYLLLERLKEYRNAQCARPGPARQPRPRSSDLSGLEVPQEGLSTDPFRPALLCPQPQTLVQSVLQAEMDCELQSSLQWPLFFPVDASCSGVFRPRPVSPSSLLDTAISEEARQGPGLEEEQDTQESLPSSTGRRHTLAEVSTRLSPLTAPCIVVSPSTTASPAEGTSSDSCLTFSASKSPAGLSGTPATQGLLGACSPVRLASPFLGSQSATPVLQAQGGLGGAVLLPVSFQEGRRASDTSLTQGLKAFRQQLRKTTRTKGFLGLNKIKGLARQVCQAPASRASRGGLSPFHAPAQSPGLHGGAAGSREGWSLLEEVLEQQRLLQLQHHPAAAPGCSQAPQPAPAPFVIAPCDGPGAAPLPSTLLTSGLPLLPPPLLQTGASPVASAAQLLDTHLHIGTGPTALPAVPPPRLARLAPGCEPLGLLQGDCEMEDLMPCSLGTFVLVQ
# T1 sequence (Q13882 whole entry): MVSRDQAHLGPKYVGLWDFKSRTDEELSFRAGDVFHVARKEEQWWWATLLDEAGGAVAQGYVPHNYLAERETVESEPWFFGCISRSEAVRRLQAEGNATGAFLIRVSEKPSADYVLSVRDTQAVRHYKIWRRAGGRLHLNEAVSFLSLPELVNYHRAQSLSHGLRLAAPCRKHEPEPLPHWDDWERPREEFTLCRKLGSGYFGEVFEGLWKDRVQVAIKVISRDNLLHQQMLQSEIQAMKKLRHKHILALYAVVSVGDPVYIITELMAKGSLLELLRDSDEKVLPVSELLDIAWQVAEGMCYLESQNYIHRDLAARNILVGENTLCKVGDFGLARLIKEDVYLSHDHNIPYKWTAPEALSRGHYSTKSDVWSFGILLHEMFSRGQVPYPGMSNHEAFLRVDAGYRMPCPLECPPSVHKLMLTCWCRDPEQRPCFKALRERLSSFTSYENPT
# T8 sequence (Q86UE8 whole entry): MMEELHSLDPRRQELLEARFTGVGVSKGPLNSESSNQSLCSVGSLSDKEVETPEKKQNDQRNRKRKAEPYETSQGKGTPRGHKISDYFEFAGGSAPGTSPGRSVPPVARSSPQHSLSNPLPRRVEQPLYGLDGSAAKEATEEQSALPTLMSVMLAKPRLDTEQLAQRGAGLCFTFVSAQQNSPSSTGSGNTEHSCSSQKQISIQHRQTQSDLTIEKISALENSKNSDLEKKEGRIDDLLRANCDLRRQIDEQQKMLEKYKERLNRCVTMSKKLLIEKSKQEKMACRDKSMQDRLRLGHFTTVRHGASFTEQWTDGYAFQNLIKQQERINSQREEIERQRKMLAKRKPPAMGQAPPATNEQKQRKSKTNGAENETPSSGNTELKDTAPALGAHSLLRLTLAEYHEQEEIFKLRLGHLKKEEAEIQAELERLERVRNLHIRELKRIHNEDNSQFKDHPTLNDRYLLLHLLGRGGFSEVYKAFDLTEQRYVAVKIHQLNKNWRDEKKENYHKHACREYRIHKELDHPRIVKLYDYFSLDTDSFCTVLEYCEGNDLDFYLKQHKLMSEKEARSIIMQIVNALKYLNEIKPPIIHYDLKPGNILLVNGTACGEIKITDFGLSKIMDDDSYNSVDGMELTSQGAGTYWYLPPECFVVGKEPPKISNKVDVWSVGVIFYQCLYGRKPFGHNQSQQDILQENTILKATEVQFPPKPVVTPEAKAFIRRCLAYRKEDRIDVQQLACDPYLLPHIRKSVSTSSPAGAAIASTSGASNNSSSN
# T7 sequence (Q9H0K1 whole entry): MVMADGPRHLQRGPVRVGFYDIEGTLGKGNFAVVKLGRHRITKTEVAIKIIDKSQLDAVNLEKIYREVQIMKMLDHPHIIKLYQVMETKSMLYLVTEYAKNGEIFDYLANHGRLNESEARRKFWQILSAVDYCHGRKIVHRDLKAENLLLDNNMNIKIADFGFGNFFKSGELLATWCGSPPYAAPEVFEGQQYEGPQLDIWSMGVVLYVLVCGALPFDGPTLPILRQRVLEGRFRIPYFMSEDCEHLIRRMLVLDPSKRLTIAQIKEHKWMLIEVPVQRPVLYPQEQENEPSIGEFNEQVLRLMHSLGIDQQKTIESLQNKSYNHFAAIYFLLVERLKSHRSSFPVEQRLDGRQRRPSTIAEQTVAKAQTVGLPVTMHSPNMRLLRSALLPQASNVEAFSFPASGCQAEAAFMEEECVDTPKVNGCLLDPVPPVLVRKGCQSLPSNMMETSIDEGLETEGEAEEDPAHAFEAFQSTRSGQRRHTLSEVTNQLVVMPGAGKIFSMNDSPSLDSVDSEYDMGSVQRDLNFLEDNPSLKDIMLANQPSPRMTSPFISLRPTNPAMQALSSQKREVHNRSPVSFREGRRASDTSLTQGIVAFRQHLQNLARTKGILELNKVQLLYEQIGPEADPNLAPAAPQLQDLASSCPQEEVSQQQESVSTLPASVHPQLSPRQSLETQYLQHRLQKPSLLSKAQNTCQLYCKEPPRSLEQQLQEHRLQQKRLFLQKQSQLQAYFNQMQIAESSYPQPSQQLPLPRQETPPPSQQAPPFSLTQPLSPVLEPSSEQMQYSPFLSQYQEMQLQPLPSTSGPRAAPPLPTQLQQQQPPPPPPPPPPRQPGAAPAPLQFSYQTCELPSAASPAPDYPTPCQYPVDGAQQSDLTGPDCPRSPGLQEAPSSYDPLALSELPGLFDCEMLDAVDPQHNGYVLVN
Compound,residual kinase activity (BRK; 0.3 µM),residual kinase activity (CHK1; 0.3 µM),residual kinase activity (DYRK2; 0.3 µM),residual kinase activity (GRK7; 0.3 µM),residual kinase activity (ROCK1; 0.3 µM),residual kinase activity (SIK1; 0.3 µM),residual kinase activity (SIK2; 0.3 µM),residual kinase activity (TLK2; 0.3 µM),further results
COc1ccnc2[nH]cc(-c3cc(N)nc(N)c3)c12 [meriolin 16],85 % of control,87 % of control,1 % of control,78 % of control,2 % of control,98 % of control,102 % of control,91 % of control,residual kinase activity (BRK; 0.03 µM): 91 % of control; residual kinase activity (CHK1; 0.03 µM): 96 % of control; residual kinase activity (DYRK2; 0.03 µM): 6 % of control; residual kinase activity (GRK7; 0.03 µM): 105 % of control; residual kinase activity (ROCK1; 0.03 µM): 24 % of control; residual kinase activity (SIK1; 0.03 µM): 102 % of control; residual kinase activity (SIK2; 0.03 µM): 96 % of control; residual kinase activity (TLK2; 0.03 µM): 111 % of control
c1ccc(CNc2cc(-c3c[nH]c4ncccc34)ccn2)cc1 [meriolin 36],66 % of control,76 % of control,31 % of control,94 % of control,1 % of control,87 % of control,86 % of control,149 % of control,residual kinase activity (BRK; 3 µM): 18 % of control; residual kinase activity (CHK1; 3 µM): 40 % of control; residual kinase activity (DYRK2; 3 µM): 4 % of control; residual kinase activity (GRK7; 3 µM): 48 % of control; residual kinase activity (ROCK1; 3 µM): 1 % of control; residual kinase activity (SIK1; 3 µM): 48 % of control; residual kinase activity (SIK2; 3 µM): 27 % of control; residual kinase activity (TLK2; 3 µM): 88 % of control
